Data as given in PMC6152192, “Novel Methylselenoesters as Antiproliferative Agents” (Molecules : A Journal of Synthetic Chemistry and Natural …, 2017).
Like-named read-outs stand apart in the source and are kept apart here.

Experiments:
[1] = system: BEAS-2B (non-malignant bronchial epithelial); assay: MTT viability assay, BEAS-2B; assay type: cell-based; conditions: BEAS-2B non-malignant, 72 h, MTT; for CC50: read-out: LC50 (the source's name)
Experimental: (§1) The novel compounds were tested against a panel of different cancer lines: PC-3 (prostate adenocarcinoma), MCF7 (mammary adenocarcinoma), HTB-54 (lung carcinoma), K-562 (chronic myelogenous leukemia) and HT-29 (colorectal adenocarcinoma). Two non-malignant cell lines, BEAS-2B (bronchial epithelial) and 184B5 (mammary epithelial) were also included to evaluate the toxicity of the novel synthesized compounds. The antiproliferative activity was measured with the [3-(4,5-dimethylthiazol-2-yl)-2,5-diphenyltetrazolium bromide] (MTT) assay after 72 h treatment. Six concentrations ranging from 0.1 to 100 μM were tested. MSA is largely known as the main CH3SeH putative precursor and was therefore included as positive control. The following parameters were calculated: GI50 (concentration which reduces the growth by 50%), TGI (concentration completely inhibiting growth) and LC50 (concentration that kills 50% of the cells).
(§2) All cells were purchased from the American Type Culture Collection (ATCC, Barcelona, Spain). HT-29 (colorectal adenocarcinoma), HTB-54 (grade III lung carcinoma), MCF7 (mammary adenocarcinoma), PC-3 (grade IV prostate adenocarcinoma) and K-562 (chronic myelogenous leukemia) were cultured in RPMI (Gibco, Madrid, Spain), 10% FBS (Gibco), 100 units/mL penicillin and 100 μg/mL streptomycin (Gibco). BEAS-2B cell line (normal epithelial lung) was cultured in DMEM (Gibco), 10% FBS, 100 units/mL penicillin and 100 μg/mL streptomycin. 184B5 (normal mammary gland) cell line was cultured in DMEM:F12 supplemented with 5% FBS, 1 × ITS (Lonza, Barcelona, Spain), 100 nM hydrocortisone (Sigma-Aldrich), 2 mM sodium pyruvate (Lonza), 20 ng/mL EGF (Sigma-Aldrich), 0.3 nM trans-retinoic acid (Sigma-Aldrich), 100 units/mL penicillin and 100 µg/mL streptomycin. Cells were cultured at 37 °C under 5% CO2.
(§3) Cell viability after treatment was assessed by the well-known 3-(4,5-dimethyl-thiazol-2-yl)-2,5-diphenyltetrazolium bromide (MTT, Sigma-Aldrich) assay. Briefly, 10,000 cells were seeded in 96-well plates, treated and incubated for 72 h. Dilutions of the compounds in cell medium were freshly prepared from a 0.01 M stock in DMSO. After treatment, 50 μL of MTT solution in PBS (2 mg/mL) were added and cells were incubated for 4 h. Medium was removed and 150 μL of DMSO was added to dissolve the formed formazan crystals. Absorbance was read at 550 nm in a microplate absorbance reader (Sunrise, Tecan, Männedorf, Switzerland).

[2] = MTT viability assay, BEAS-2B; assay type: cell-based; conditions: human
Experimental: as §1, §2, §3

[3] = Methylselenol (CH3SeH) release by hydrolysis, quantified with DTNB (Ellman's reagent); assay type: physicochemical; conditions: 100 μM compound, 100 μM DTNB; for CH3SeH release / hydrolysis rate: 100 mM phosphate buffer, 1 mM EDTA, pH 8, followed over 72 h
Source text: The new compounds were designed as CH3SeH precursors. The chemical features of the selenoester functional group facilitate a nucleophilic attack (i.e., with water) which would deliver the CH3SeH residue. In order to verify if CH3SeH could be released from the molecules by hydrolysis and if the rate differed among the compounds, the reaction of CH3SeH with 5,5′-dithiobis(2-nitrobenzoic acid) (DTNB or Ellman’s reagent) in aqueous environment was monitored. Briefly, when the disulfide bridge of DTNB reacts with thiols or selenols, 2-nitro-5-thiobenzoate (TNB^2−) is released and the mixed disulfide or selenylsulfide is formed. Each released CH3SeH produces one yellow TNB^2− species, whose absorbance can be quantified at 412 nm (Figure 2A).
A stock solution of the compounds was prepared in anhydrous DMSO (10 mM). The compounds were placed in a 96-well plate in a final concentration of 100 μM. Reaction started after adding 200 μL of an aqueous 100 mM Na2HPO4 buffer (1 mM EDTA, pH = 8), containing 100 μM of DTNB from a freshly prepared 10 mM ethanolic stock, which were added just before starting the reaction. The DTNB concentration was quantified with a cysteine standard curve ([…]). Blanks for the compounds in the absence of DTNB were also included as well as a blank to measure the slow but spontaneous hydrolysis of DTNB, which was further subtracted from all the values. Absorbance was read at 412 nm in a FLUOstar Omega microplate reader (BMG LabTech, Ortenberg, Germany). Results represent means of triplicate values ± SD.
Figure 2 CH3SeH release rates are dependent on the chemical features of the molecule. Released CH3SeH was quantified through reaction with Ellman’s reagent (DTNB). (A) Proposed reaction between CH3SeH and DTNB; (B) Quantification of TNB^2− at different times. The compounds were tested at 100 μM in 200 μL of 100 mM phosphate buffer (1 mM EDTA, pH = 8). DTNB concentration was also 100 μM. Absorbance was followed at 412 nm over 72 h. A cysteine standard curve (7.5–150 μM) was used to calculate the concentration of TNB^2− over time. Compounds showing less than 15% hydrolysis at 72 h are not included, except for compound 5 as example. Error bars indicate SD of triplicates.

[4] = system: MCF7 (mammary adenocarcinoma); assay: MTT viability assay, MCF7; assay type: cell-based; conditions: MCF7, 72 h
Experimental: as §1, §2, §3

HTB-54 (lung carcinoma) = assay: MTT viability assay, HTB-54; assay type: cell-based; conditions: HTB-54, 72 h
Experimental: as §1, §2, §3

[5] = system: K-562 (chronic myelogenous leukemia); assay: MTT viability assay, K-562; assay type: cell-based
Experimental: as §1, §2, §3

[6] = system: HT-29 (colorectal adenocarcinoma); assay: MTT viability assay, HT-29; assay type: cell-based; conditions: HT-29, 72 h
Experimental: as §1, §2, §3

[7] = system: PC-3 (prostate adenocarcinoma); assay: MTT viability assay, PC-3; assay type: cell-based
Experimental: as §1, §2, §3

[8] = system: 184B5 (non-malignant mammary epithelium); assay: MTT viability assay, 184B5; assay type: cell-based; conditions: 184B5 non-malignant, 72 h, MTT; for CC50: read-out: LC50 (the source's name)
Experimental: as §1, §2, §3

[9] = MTT viability assay, 184B5; assay type: cell-based; conditions: human
Experimental: as §1, §2, §3

[10] = system: thioredoxin reductase (TrxR1); assay: Thioredoxin reductase activity assay (NADPH consumption); assay type: biochemical; conditions: 100 nM TrxR1, 227 μM NADPH, TE buffer pH 8, 45 min
Experimental: The assay was performed as previously described, but in a final volume of 200 μL in a 96-well plate. Reaction started after addition of 133 μL of TE buffer (20 mM Tris, 2 mM EDTA, pH = 8), 0.227 mM NADPH (freshly prepared) to different concentrations of compounds solved in DMSO and TrxR1 (final concentration 100 nM). NADPH consumption was followed measuring absorbance decrease at 340 nm in a VersaMax microplate reader (Molecular Devices, Sunnyvale, CA, USA) over 45 min. A background sample with DMSO without the compounds was included and subtracted from the values.
(§4) Figure 7 Compounds 5 and 15 are substrates for thioredoxin reductase but not for the glutathione-glutaredoxin system. (A) NADPH consumption indicating reduction of compounds 5, 15 or MSA as control by thioredoxin reductase. The reaction mixture contained 100 nM TrxR1, 227 μM NADPH and the corresponding amount of compound in TE buffer (20 mM Tris, 2 mM EDTA pH = 8); (B) NADPH consumption indicating reduction of MSA by glutathione in the presence or absence of glutaredoxin. The reaction mixture contained the corresponding amount of compound, 0.1 M Tris, 2 mM EDTA pH = 8, 0.1 mg/mL BSA, 1 mM GSH, 200 μM NADPH, 0.008 OD/mL yeast GR and 1 μM hGrx1 when required. Only results for MSA are shown, as compounds 5 and 15 were not reduced.

[11] = system: glutathione-glutaredoxin (GSH-Grx) system; assay: Glutaredoxin/glutathione assay (NADPH consumption); assay type: biochemical; conditions: 1 mM GSH, 200 μM NADPH, yeast GR, 1 μM hGrx1 when required, 45 min
Experimental: The assay was performed as previously described, with minor modifications and adapted for a 96-well plate. A mixture of 0.1 M Tris pH 8, 2 mM EDTA pH = 8, 0.1 mg/mL BSA, 1 mM GSH, 200 μM NADPH, and 0.008 OD/mL yeast GR was prepared (all reagents were purchased from Sigma-Aldrich). Reactions were performed with 1 μM hGrx1 (IMCO Corporation, Stockholm, Sweden) when corresponding and different concentrations of the compounds. A 100 μL mixture was added, and the final volume was adjusted to 110 μL per well. Consumption of NADPH was monitored at A340 on a VersaMax microplate reader (Molecular Devices) for 45 min.
as §4

[12] = MTT, read-out: LC50 (the source's name)
[13] = PC-3, 72 h, MTT, read-out: LC50 (the source's name)
[14] = K-562, 72 h, MTT, read-out: LC50 (the source's name)

Row | Molecule | TGI [1] [µM] | TGI ([4]; MTT) [µM] | GI50 (HTB-54 (lung carcinoma); MTT) [µM] | TGI (HTB-54 (lung carcinoma); MTT) [µM] | TGI ([5]; K-562, 72 h, MTT) [µM] | TGI ([6]; MTT) [µM] | GI50 ([7]; PC-3, 72 h, MTT) [µM] | TGI ([7]; PC-3, 72 h, MTT) [µM] | TGI [8] [µM] | GI50 [1] [µM] | CC50 [1] [µM] | GI50 ([4]; MTT) [µM] | CC50 [4, 12] [µM] | CC50 (HTB-54 (lung carcinoma); [12]) [µM] | CC50 [7, 13] [µM] | GI50 [8] [µM] | CC50 [8] [µM] | CH3SeH release / hydrolysis rate [3] | GI50 ([5]; K-562, 72 h, MTT) [µM] | CC50 [5, 14] [µM] | further results
1 | C[Se]C(=O)c1cnccn1 [Compound 3, Methyl pyrazinecarboselenoate] | 6.1 ± 0.5 | 7.2 ± 1.0 | 6.2 ± 1.5 | 21.1 ± 4.1 | 59.1 ± 2.1 | 9.1 ± 0.8 | 5.4 ± 1.1 | 15.3 ± 1.7 | 6.6 ± 0.9 |  |  |  |  |  |  |  |  |  |  |  | GI50 ([1]; Homo sapiens): 3.6 ± 0.6 µM; CC50 at 72 h [2]: 8.6 ± 0.5 µM; CH3SeH release at 24 h ([3]; phosphate buffer pH 8, 24 h): completely released; CC50 ([4]; Homo sapiens, read-out: LC50): 40.1 ± 4.4 µM; GI50 ([4]; Homo sapiens, MTT): 3.5 ± 0.8 µM; CC50 (HTB-54 (lung carcinoma); read-out: LC50): 71.1 ± 3.8 µM; CC50 ([5]; Homo sapiens, K562, 72 h, read-out: LC50): 87.9 ± 2 µM; GI50 ([5]; Homo sapiens, K562, K-562, 72 h, MTT): 30.2 ± 2.2 µM; CC50 ([6]; Homo sapiens, read-out: LC50): > 100 µM; GI50 ([6]; Homo sapiens, MTT): 4.7 ± 0.6 µM; CC50 ([7]; 72 h, read-out: LC50): 60.5 ± 4.3 µM; GI50 ([8]; Homo sapiens): 3.1 ± 0.5 µM; CC50 at 72 h [9]: 17.6 ± 4.4 µM
2 | C[Se](=O)O [MSA, Methylseleninic acid, reference compound] | 6.2 ± 1.2 | 5.4 ± 0.5 | 3.5 ± 0.1 | 6.9 ± 0.2 |  |  | 4.4 ± 1.1 | 8.5 ± 2.4 | 9.2 ± 1.3 | 3.7 ± 0.7 | 8.7 ± 1.8 | 1.5 ± 0.5 | 9.4 ± 1 | 19.9 ± 1.2 | 47.6 ± 4.6 | 5.3 ± 1.2 | 13.1 ± 1.3 |  |  |  | reduction by TrxR1 (NADPH consumption) [10]: consistently reduced; reduction by GSH in the presence or absence of glutaredoxin (NADPH consumption) [11]: consistently reduced
3 | Methyl 4-nitrobenzoselenoate [Compound 1] | 6.4 ± 0.4 | 7.9 ± 0.9 |  | 50.5 ± 5.1 | 85.3 ± 4.9 | 9.3 ± 1.4 | 5.8 ± 0.7 | 10.4 ± 2.3 | 6.4 ± 1.1 | 3.8 ± 0.3 | 9 ± 0.7 | 4.1 ± 0.5 | 45 ± 4.6 | 78.6 ± 2.9 | 75.7 ± 3.3 | 3.4 ± 0.4 | 9.3 ± 0.6 | more sustained release | 50.1 ± 2.3 | > 100 | GI50 ([6]; MTT): 5 ± 0.7 µM; CC50 [6, 12]: 87.2 ± 5 µM
4 | Methyl 5-isoxazolecarboselenoate [Compound 6] | 5.6 ± 0.7 | 8.8 ± 0.7 | 9 ± 2.8 | 43.9 ± 3.9 | 58.3 ± 3.5 | 15.1 ± 6.7 | 4.5 ± 1.3 |  | 6.0 ± 0.4 | 3 ± 0.9 | 8.2 ± 0.5 | 3.5 ± 1 | 71.9 ± 3.2 | 82 ± 1.3 | 61.5 ± 14 | 2.7 ± 0.2 | 9.3 ± 2 | completely hydrolyzed within the first two hours of incubation | 18.5 ± 7.1 | 98.1 ± 0.7 | GI50 ([6]; MTT): 5 ± 0.8 µM; CC50 [6, 12]: 90.8 ± 15 µM
5 | Methyl 6-bromochromone-2-carboselenoate [Compound 11] | 5.0 ± 0.8 | 8.2 ± 1.1 | 9.4 ± 3.5 | 52.3 ± 2.9 | >100 | 9.6 ± 3 | 5.3 ± 1.1 | 17.1 ± 5.0 | 6.7 ± 0.9 | 2.4 ± 0.9 | 7.6 ± 0.7 | 4.2 ± 0.7 | > 100 | > 100 | 66.2 ± 2.4 | 3.3 ± 0.1 | 14.5 ± 4.5 | completely hydrolyzed within the first two hours of incubation | 81.9 ± 4 | > 100 | GI50 ([6]; MTT): 4.9 ± 0.7 µM; CC50 [6, 12]: 74.4 ± 4.2 µM
